Patent US7615554B2, “Erastin and erastin binding proteins, and uses thereof” (Prolexys Pharmaceuticals, Inc., priority 2005, dated 2009)

What was measured:
Type in all cases: cell-based, human
engineered cell lines = assay: Selectivity across the engineered cell lines (calcein AM IC50 ratios); settings: from selectivity ratio for each subsequent pair of cell lines in a series
Description: To calculate this selectivity score between two cell lines, the IC50 for a compound in one cell line was divided by the IC50 for the same compound in a second cell line. […] The “tumor selectivity score” was calculated for each compound, by dividing the IC50 value for the compound in the parental, primary BJ cells by the IC50 value for the compound in engineered BJ-TERTALT/ST/RAS^V12 cells, containing all four genetic elements required to create tumorigenic cells (Table 1).
Applicants sought to determine the genetic basis of selectivity for each compound. That is, for each compound, they attempted to define the gene or combination of genes responsible for rendering cells sensitive to the compound (Table 1).
The IC50 in primary BJ cells was divided by the IC50 in BJ-TERT/LT/ST/RAS^V12 tumorigenic cells to obtain a tumor selectivity ratio for each compound. The compound selectivity for each genetic element was determined by calculating the selectivity ratio for each subsequent pair of cell lines in a series.

BJ primary cells = assay: Calcein AM viability assay, BJ cells; settings: 16-point two-fold dilution
Description: (§1) Described here is work carried out to identify compounds with increased potency or activity in the presence of hTERT, LT, ST, E6, E7 or RAS^V12. Although the work described herein made use of hTERT, LT, ST, E6, E7 and RAS^V12 as transforming genes, future studies can make use of a wide variety of cancer-associated alleles using this methodology in order to define the signaling networks that involve many oncogenes and tumor suppressors. […] Cell viability was measured using the dye calcein acetoxymethyl ester (calcein AM) (Wang et al., 1993, Hum. Immunol. 37, 264-270), which is a non-fluorescent compound that freely diffuses into cells. […]
(§2) Calcein acetoxylmethyl ester (AM) is a cell membrane-permeable, non-fluorescent compound that is cleaved by intracellular esterases to form the anionic, cell-impermeable, fluorescent compound calcein. […] Total fluorescence intensity in each well was recorded on a Packard Fusion platereader, and converted to a percent inhibition of signal by subtracting the instrument background and dividing by the average signal obtained when cells were not treated with any compound. […]
(§3) Mean RFU (relative fluorescence units) for untreated cells was calculated by averaging columns 1, 2, and 23 (wells with cells but lacking compounds). The calcein background was calculated by averaging column 24 (wells with calcein, but lacking cells). […]

TIP5-TERT/E6E7 cells = assay: Calcein AM viability assay, TIP5-TERT/E6E7 cells; settings: 16-point two-fold dilution
Description: as §1, §2, §3

[1] = tested on: TIP5-TERT/LT/ST/Ras^v12 cells; assay: Calcein AM viability assay, TIP5-TERT/LT/ST/Ras^v12 cells; settings: 16-point two-fold dilution
Description: as §1, §2, §3

[2] = tested on: TIP5-TERT/E6E7/ST/Ras^v12 cells; assay: Calcein AM viability assay, TIP5-TERT/E6E7/ST/Ras^v12 cells; settings: 16-point two-fold dilution
Description: as §1, §2, §3

TIP5-TERT cells = assay: Calcein AM viability assay, TIP5-TERT cells; settings: 16-point two-fold dilution
Description: as §1, §2, §3

BJ-TERT/LT/ST cells = assay: Calcein AM viability assay, BJ-TERT/LT/ST cells; settings: 16-point two-fold dilution
Description: as §1, §2, §3

TIP5-TERT/E6E7/ST cells = assay: Calcein AM viability assay, TIP5-TERT/E6E7/ST cells; settings: 16-point two-fold dilution
Description: as §1, §2, §3

[3] = tested on: BJ-TERT/LT/RAS^V12/ST cells; assay: Calcein AM viability assay, BJ-TERT/LT/RAS^V12/ST cells; settings: 16-point two-fold dilution
Description: as §1, §2, §3

[4] = tested on: BJ-TERT/LT/ST/RAS^V12 tumorigenic cells; assay: Calcein AM viability assay, BJ-TERT/LT/ST/RAS^V12 cells; settings: BJ-TERT/LT/ST/Ras^v12; 16-point two-fold dilution
Text: as §1, with “suppressors. Engineered cell lines with these genetic elements were used to screen 23,550 compounds, including 20,000 compounds from a combinatorial library, 1,990 compounds from the National Cancer Institute diversity collection, and 1,540 biologically active known compounds that were selected and purchased by Applicant and formatted into a screenable collection.” for “suppressors.”
as §2
Mean RFU (relative fluorescence units) for untreated cells was calculated by averaging columns 1, 2, and 23 (wells with cells but lacking compounds). The calcein background was calculated by averaging column 24 (wells with calcein, but lacking cells). Percentage inhibition of each well was calculated as [1−(RFU−calcein control)/(untreated cell−calcein control)*100]. […]

TIP5-TERT/LT cells = assay: Calcein AM viability assay, TIP5-TERT/LT cells; settings: 16-point two-fold dilution
Description: as §1, §2, §3

Cc1c2ccccc2c(CSC(=N)N)c2ccccc12.Cl [NSC146109]
Genetic basis of Selectivity (engineered cell lines): non-specific
concentration required to achieve 50% inhibition of calcein AM staining (IC50) (BJ primary cells): >5 µg/mL
concentration required to achieve 50% inhibition of calcein AM staining (IC50) (TIP5-TERT/E6E7 cells): 2.5 µg/mL
concentration required to achieve 50% inhibition of calcein AM staining (IC50) [1]: 2.5 µg/mL
concentration required to achieve 50% inhibition of calcein AM staining (IC50) [2]: 2.5 µg/mL
concentration required to achieve 50% inhibition of calcein AM staining (IC50) (TIP5-TERT cells): >5 µg/mL
concentration required to achieve 50% inhibition of calcein AM staining (IC50) (BJ-TERT/LT/ST cells): 2.5 µg/mL
concentration required to achieve 50% inhibition of calcein AM staining (IC50) (TIP5-TERT/E6E7/ST cells): 2.5 µg/mL
concentration required to achieve 50% inhibition of calcein AM staining (IC50) [3]: 2.5 µg/mL
concentration required to achieve 50% inhibition of calcein AM staining (IC50) [4]: 2.5 µg/mL
concentration required to achieve 50% inhibition of calcein AM staining (IC50) (TIP5-TERT/LT cells): >5 µg/mL
